This test has as its system retinal precursor cells. Briefly: Sphere passaging and high-throughput drug screening: proliferation of retinal precursor cells within one week. To be noted: for Cell proliferation within one week [%]: retinal precursor cells grown one week with compound in 0.1% DMSO, control without compound = 100; for increase of cell proliferation within one week: increase over control, retinal precursor cells. It counts as cell-based, mammalian. The protocol: Kynurenic Acid (0.2 mg/mL), trypsin (1.33 mg/mL), and hyaluronidase (0.67 mg/mL) were weighed out and dissolved in high magnesium/low calcium artificial cerebral spinal fluid (aCSF) at 37° C. Fibroblast growth factor 2 (FGF2; 10 ng/mL) and heparin (2 μg/mL) were added to 100 mL of serum-free media (SFM). Ovomucoid trypsin inhibitor (1 mg/mL) was dissolved in warm SFM and sterile filtered ([…]).
A dissecting microscope, cold light source, and sterile surgical instruments were set up inside of a sterile biological safety cabinet (BSC). Mammalian eyes were enucleated and placed in a petri dish containing cold, sterile aCSF. Under the dissecting microscope, hair, connective tissue, and the dorsal and ventral oblique muscles were cleared from the scleral/corneal border with two sets of forceps. Next, curved or angled micro-dissecting scissors were used to cleave any remaining extraocular muscle tissue, the optic nerve, and cut the eyeball into symmetrical halves; beginning and finishing the cut from the hole left by the optic nerve. Using two sets of forceps to grasp the cornea, the two eye halves were peeled apart. The lens, optic nerve, and vitreous were separated from the eye shells and the eye shells were transferred into a new petri dish (also containing cold, sterile aCSF). To isolate the ciliary epithelium (CE), eye shells were oriented with the cornea on the right and retinal pigmented epithelium (RPE) on the left. A pair of straight forceps were used to pin down the eye shell on the RPE side while a scalpel blade was inserted between the CE and the iris, using pressure to slice the iris/cornea side off from the rest of the shell. Next, the scalpel was run along the border between the CE and the RPE to obtain the CE isolated as a thin strip of tissue. The CE strips were then transferred to a 35 mm dish containing 2 mL of dispase solution (Sigma; T1005) and incubated for 10 minutes at 37° C. Next, the strips were transferred from dispase into a 35 mm dish containing 2 mL of sterile filtered kynurenic acid, trypsin and hyaluronidase solution and incubated at 37° C. for 10 minutes. After incubation, the dish was returned to the dissecting scope, and the CE strips were pinned down with straight, non-serrated forceps, while non-serrated curved forceps were used to scrape the CE off from the underlying sclera. The bare scleral strips were then discarded, such that only the CE cells remained in the enzyme solution. Using a fire-polished, cotton-plugged glass pipette, the cells and enzyme solution were transferred to a 15 mL tube and triturated approximately 45 times to break apart the tissue. The 15 mL tube/cell suspension was centrifuged for 5 minutes at 1500 rpm. The supernatant was gently aspirated from the resulting pellet using a fire-polished, cotton-plugged glass pipette and 2 mL of trypsin inhibitor solution was added to the pellet. Using a small borehole, fire-polished, cotton-plugged glass pipette, the sample was triturated approximately 45 times until it was a single-cell suspension. The 15 mL tube/cell suspension was centrifuged for 5 minutes at 1500 rpm. The supernatant was gently aspirated from the resulting pellet and 1-2 mL of SFM with FGF2 and heparin (plating media) was added. The cells and media were mixed to ensure a uniform cell suspension and a 10 uL sample was taken and cell density was determined. The cells were then seeded and cultured at 10c/μL in culture-treated plates or flasks. After one week, roughly 1 in 500 cells proliferated to form free-floating, clonal spheres greater than 80 μm in diameter.
Human-derived spheres were passaged using the kynurenic acid, trypsin, hyaluronidase enzyme solution with the addition of collagenase I (0.5 mg/mL), collagenase II (0.5 mg/mL) and elastase (0.1 mg/mL). Mouse-derived spheres were passaged using hyaluronidase (0.67 mg/mL), collagenase I (0.5 mg/mL), and collagenase II (0.5 mg/mL) dissolved in Accustase solution (Sigma; SCR005). […]

Where [1] appears, read: results table after the methods.

SMILES strings stand for the structures.

On to `O=C(Cc1ccc(F)cc1F)Nc1ccc(-c2cnco2)c(F)c1` [Compound E1045, 2-(2,4-difluorophenyl)-N-(3-fluoro-4-(oxazol-5-yl)phenyl)acetamide], for which the “Cell proliferation within one week [%]” value worked out at 140% under setting [1] and 140% (concentration not given).

For the compound `COc1cc(NC(=O)Cc2cccc(OC(F)F)c2)ccc1-c1ccncc1` [Compound E1066, 2-(3-(difluoromethoxy)phenyl)-N-(3-methoxy-4-(pyridin-4-yl)phenyl)acetamide], under setting [1], the “Cell proliferation within one week [%]” value turned out to be 108%.

With `COc1cccc(CC(=O)Nc2ccc(-c3cnco3)c(F)c2)c1` [Compound E1042, N-(3-fluoro-4-(oxazol-5-yl)phenyl)-2-(3-methoxyphenyl)acetamide], the “Cell proliferation within one week [%]” value under setting [1] is on record as 127% and the “Cell proliferation within one week [%]” value (concentration not given) was 127%.

On to `COc1cc(NC(=O)Cc2ccc(F)cc2F)ccc1-c1ccncc1` [Compound E1069, 2-(2,4-difluorophenyl)-N-(3-methoxy-4-(pyridin-4-yl)phenyl) acetamide], for which the “Cell proliferation within one week [%]” value under setting [1] amounted to 106%.

For the compound `COc1cccc(CC(=O)Nc2ccc(-c3ccncc3)c(OC)c2)c1` [Compound E1072, N-(3-methoxy-4-(pyridin-4-yl)phenyl)-2-(3-methoxyphenyl)acetamide], the “increase of cell proliferation within one week” value (“increase” for short) was 40%. In addition, the “Cell proliferation within one week [%]” value under setting [1] turned out to be 140%.

As for `COc1cc(NC(=O)Cc2ccccc2OC(F)F)ccc1-c1ccncc1` [Compound E1073], under setting [1], the “Cell proliferation within one week [%]” value is given as 121%.

Consider `COc1cc(NC(=O)Cc2ccccc2C(F)(F)F)ccc1-c1ccncc1` [Compound E1071, N-(3-methoxy-4-(pyridin-4-yl)phenyl)-2-(2-(trifluoromethyl)phenyl)acetamide], for which, under setting [1], the “Cell proliferation within one week [%]” value is on record as 113%.

Turning to `O=C(Cc1cccc(OC(F)F)c1)Nc1ccc(-c2cnco2)c(F)c1` [Compound E1027, 2-(3-(difluoromethoxy)phenyl)-N-(3-fluoro-4-(oxazol-5-yl)phenyl)acetamide], the “Cell proliferation within one week [%]” value by setting is: under setting [1], 120%; (concentration not given) 120%.

In the case of `O=C(Cc1ccccc1)Nc1ccc(-c2cnco2)c(F)c1` [Compound E1031, N-(3-fluoro-4-(oxazol-5-yl)phenyl)-2-phenylacetamide], the “Cell proliferation within one week [%]” value is, setting by setting: under setting [1], 123%; (concentration not given) 123%.

As for `COc1cc(NC(=O)Cc2ccccc2)ccc1-c1ccncc1` [Compound E1063, N-(3-methoxy-4-(pyridin-4-yl)phenyl)-2-phenylacetamide], the “Cell proliferation within one week [%]” value under setting [1] was found to be 130%.

With `O=C(Cc1cccc(C(F)(F)F)c1)Nc1ccc(-c2cnco2)c(Cl)c1` [Compound E1018, N-(3-chloro-4-(oxazol-5-yl)phenyl)-2-(3-(trifluoromethyl)phenyl)acetamide], the “Cell proliferation within one week [%]” value was determined as 134% under setting [1] and 134% (concentration not given).

On to `O=C(Cc1ccccc1Cl)Nc1ccc(-c2cnco2)c(Cl)c1` [Compound E1022, N-(3-chloro-4-(oxazol-5-yl)phenyl)-2-(2-chlorophenyl)acetamide], for which the “increase” value is given as 58%. Further, the “Cell proliferation within one week [%]” value under setting [1] came out at 158%. Besides, the “Cell proliferation within one week [%]” value (concentration not given) came out at 158%.

For the compound `O=C(Cc1ccccc1OC(F)F)Nc1ccc(-c2cnco2)c(F)c1` [Compound E1028, 2-(2-(difluoromethoxy)phenyl)-N-(3-fluoro-4-(oxazol-5-yl)phenyl)acetamide], the “Cell proliferation within one week [%]” value is, setting by setting: under setting [1], 119%; (concentration not given) 119%.

Regarding `O=C(Cc1ccccc1)Nc1ccc(-c2cnco2)c(Cl)c1` [Compound E1021, N-(3-chloro-4-(oxazol-5-yl)phenyl)-2-phenylacetamide], the “increase” value is recorded as 49%. The “Cell proliferation within one week [%]” value under setting [1] amounted to 149%. For the setting “concentration not given”, the “Cell proliferation within one week [%]” value was determined as 149%.

As to `O=C(Cc1cccc(C(F)(F)F)c1)Nc1ccc(-c2cnco2)c(F)c1` [Compound E1048, N-(3-fluoro-4-(oxazol-5-yl)phenyl)-2-(3-(trifluoromethyl)phenyl)acetamide], the “Cell proliferation within one week [%]” value reads like this: under setting [1], 105%; (concentration not given) 105%.

In the case of `COc1ccccc1CC(=O)Nc1ccc(-c2cnco2)c(F)c1` [Compound E1025, N-(3-fluoro-4-(oxazol-5-yl)phenyl)-2-(2-methoxyphenyl)acetamide], the “Cell proliferation within one week [%]” value under setting [1] is recorded as 106% and the “Cell proliferation within one week [%]” value (concentration not given) was found to be 106%.

For the compound `COc1cc(NC(=O)Cc2ccccc2Cl)ccc1-c1ccncc1` [Compound E0027, 2-(2-chlorophenyl)-N-(3-methoxy-4-(pyridin-4-yl)phenyl)acetamide], the “increase” value is recorded as 48%. Moreover, the “Cell proliferation within one week [%]” value under setting [1] was 148%.

As to `COc1ccccc1CC(=O)Nc1ccc(-c2ccncc2)c(OC)c1` [Compound E1068, N-(3-methoxy-4-(pyridin-4-yl)phenyl)-2-(2-methoxyphenyl)acetamide], the “Cell proliferation within one week [%]” value under setting [1] is listed as 108%.

With `O=C(Cc1cccc(OC(F)F)c1)Nc1ccc(-c2cnco2)c(Cl)c1` [Compound E1026, N-(3-chloro-4-(oxazol-5-yl)phenyl)-2-(3-(difluoromethoxy)phenyl)acetamide], the “Cell proliferation within one week [%]” value reads like this: under setting [1], 122%; (concentration not given) 122%.

Turning to `O=C(Cc1cccc(Br)c1)Nc1ccc(-c2cnco2)c(Cl)c1` [Compound E0148, 2-(3-bromophenyl)-N-(3-chloro-4-(oxazol-5-yl)phenyl)acetamide], the “increase” value is 43%. The “Cell proliferation within one week [%]” value under setting [1] was determined as 143%. Besides, the “Cell proliferation within one week [%]” value (concentration not given) is recorded as 143%.

Take `COc1cc(NC(=O)Cc2cc(F)ccc2Cl)ccc1-c1ccncc1` [Compound E1062, 2-(2-chloro-5-fluorophenyl)-N-(3-methoxy-4-(pyridin-4-yl)phenyl)acetamide]: the “Cell proliferation within one week [%]” value under setting [1] is listed as 134%.

Turning to `O=C(Cc1ccc(Cl)cc1)Nc1ccc(-c2cnco2)c(Cl)c1` [Compound E1019, N-(3-chloro-4-(oxazol-5-yl)phenyl)-2-(4-chlorophenyl)acetamide], the “Cell proliferation within one week [%]” value amounted to 133% under setting [1] and 133% (concentration not given).

Consider `COc1cccc(CC(=O)Nc2ccc(-c3cnco3)c(Cl)c2)c1` [Compound E0146, N-(3-chloro-4-(oxazol-5-yl)phenyl)-2-(3-methoxyphenyl)acetamide], for which the “increase” value was found to be 103%. Also, the “Cell proliferation within one week [%]” value under setting [1] was found to be 203%. Further, the “Cell proliferation within one week [%]” value (concentration not given) was found to be 203%.

`O=C(Cc1ccccc1C(F)(F)F)Nc1ccc(-c2cnco2)c(Cl)c1` [Compound E0147, N-(3-chloro-4-(oxazol-5-yl)phenyl)-2-(2-(trifluoromethyl)phenyl)acetamide]: the “increase” value was 42%. The “Cell proliferation within one week [%]” value under setting [1] was 142%. Also, where the note is “concentration not given”, the “Cell proliferation within one week [%]” value is recorded as 142%.

As to `O=C(Cc1cc(F)ccc1Cl)Nc1ccc(-c2cnco2)c(Cl)c1` [Compound E1017, N-(3-chloro-4-(oxazol-5-yl)phenyl)-2-(2-chloro-5-fluorophenyl)acetamide], the “Cell proliferation within one week [%]” value is, setting by setting: under setting [1], 121%; (concentration not given) 121%.

Source of the values: US10752593B2, “Compounds for use as therapeutically active substances in the treatment of retinal diseases” (ENDOGENA THERAPEUTICS, INC., priority 2018, dated 2020).
